Experimental data as given in patent US8987314B2, “Amide, urea or sulfone amide linked benzothiazole inhibitors of endothelial lipase” (Bristol-Myers Squibb Company, priority 2012, dated 2015).
Where two headings read alike, the source gives them in different places.

How the values were obtained:
Endothelial lipase (EL) = Endothelial lipase (EL) (Homo sapiens (Human), UniProt Q9Y5X9); experiment: EL assay: endothelial lipase activity with fluorescent substrate A10070 in DMPG vesicles; format: biochemical
Summary of the method: (§1)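 Substrate A10070 sits in sonicated DMPG vesicles at 0.11 mole fraction. Lipase and compound preincubated 30 min, 37° C, in HEPES pH 8.0 buffer with CaCl2.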

hepatic lipase (HL) = hepatic lipase (HL) (Homo sapiens (Human), UniProt P11150); experiment: HL assay: hepatic lipase activity with fluorescent substrate A10070 in DMPG vesicles; format: biochemical
Summary of the method: as §1

[1] = EL from conditioned media of HT-1080 cells, 30 min incubation with compound at 37° C., A10070/DMPG vesicles
[2] = HL partially purified from conditioned media of COS cells, 30 min incubation with compound at 37° C., A10070/DMPG vesicles

Chain of hepatic lipase (HL) (P11150 23-499, species assumed): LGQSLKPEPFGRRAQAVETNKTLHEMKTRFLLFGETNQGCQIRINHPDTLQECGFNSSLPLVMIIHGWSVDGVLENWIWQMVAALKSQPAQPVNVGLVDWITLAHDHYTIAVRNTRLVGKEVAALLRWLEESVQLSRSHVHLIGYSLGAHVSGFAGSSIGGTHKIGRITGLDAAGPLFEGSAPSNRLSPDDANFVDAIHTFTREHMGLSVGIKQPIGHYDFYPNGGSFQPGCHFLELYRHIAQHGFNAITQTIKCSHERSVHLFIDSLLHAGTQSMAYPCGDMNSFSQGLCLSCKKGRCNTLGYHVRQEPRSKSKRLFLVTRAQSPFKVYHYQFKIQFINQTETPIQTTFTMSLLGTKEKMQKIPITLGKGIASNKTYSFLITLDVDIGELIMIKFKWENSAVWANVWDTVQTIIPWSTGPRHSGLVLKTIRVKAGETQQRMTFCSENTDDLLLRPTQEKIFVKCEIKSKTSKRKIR
Chain of Endothelial lipase (EL) (Q9Y5X9 21-500): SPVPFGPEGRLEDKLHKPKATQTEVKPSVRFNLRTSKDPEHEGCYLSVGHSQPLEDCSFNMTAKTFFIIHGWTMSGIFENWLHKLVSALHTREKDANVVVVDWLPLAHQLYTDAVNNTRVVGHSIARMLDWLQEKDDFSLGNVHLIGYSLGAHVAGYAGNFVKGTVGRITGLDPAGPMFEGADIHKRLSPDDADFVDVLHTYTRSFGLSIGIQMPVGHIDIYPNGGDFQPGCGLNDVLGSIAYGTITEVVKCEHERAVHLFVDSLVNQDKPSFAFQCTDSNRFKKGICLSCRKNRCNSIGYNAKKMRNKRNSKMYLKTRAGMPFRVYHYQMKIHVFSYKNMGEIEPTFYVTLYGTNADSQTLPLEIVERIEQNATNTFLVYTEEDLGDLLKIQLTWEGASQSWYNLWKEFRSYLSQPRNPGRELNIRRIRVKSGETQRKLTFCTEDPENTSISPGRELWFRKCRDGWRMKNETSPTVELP

SMILES	IC50 (Endothelial lipase (EL); [1]) [nM]	IC50 (hepatic lipase (HL); [2]) [nM]	IC50 (Endothelial lipase (EL)) [nM]	IC50 (hepatic lipase (HL)) [nM]
COCCN(C)C(=O)c1ccc(-c2ccc3nc(C(C(=O)NCCS(N)(=O)=O)S(C)(=O)=O)sc3c2)cc1 (stereo not drawn) [Example B172, N-(2-Methoxyethyl)-N-methyl-4-(2-(1-(methylsulfonyl)-2-oxo-2-((2-sulfamoylethyl)amino)ethyl)-1,3-benzothiazol-6-yl)benzamide]	< 10	77	–	–
CS(=O)(=O)C(C(=O)NCCS(N)(=O)=O)c1nc2ccc(-c3ccc(C(=O)O)cc3)cc2s1 (stereo not drawn) [Example B173, 4-(2-(1-(Methylsulfonyl)-2-oxo-2-(2-sulfamoylethylamino)ethyl)benzo[d]thiazol-6-yl)benzoic acid]	< 10	274	–	–
CC1(O)CN(C(=O)c2ccc(-c3ccc4nc(C(C(=O)NCCS(N)(=O)=O)S(C)(=O)=O)sc4c3)cc2)C1 (stereo not drawn) [Example B174, 2-(6-(4-(3-Hydroxy-3-methylazetidine-1-carbonyl)phenyl)benzo[d]thiazol-2-yl)-2-(methylsulfonyl)-N-(2-sulfamoylethyl)acetamide]	< 10	402	–	–
COCCNC(=O)c1cccc(-c2ccc3nc(C(C(=O)NCCS(N)(=O)=O)S(=O)(=O)CCC(F)(F)F)sc3c2)c1 (stereo not drawn) [Example B179, N-(2-Methoxyethyl)-3-(2-(2-oxo-2-((2-sulfamoyl-ethyl)amino)-1-((3,3,3-trifluoropropyl)sulfonyl)eth-yl)benzo[d]thiazol-6-yl)benzamide]	–	–	24	170
CS(=O)(=O)C(C(=O)NCCS(N)(=O)=O)c1nc2ccc(-c3ccc4c(c3)CC(=O)N4)cc2s1 (stereo not drawn) [Example B180, 2-(Methylsulfonyl)-2-(6-(2-oxo-2,3-dihydro-1H-indol-5-yl)-1,3-benzothiazol-2-yl)-N-(2-sulfamoylethyl)acetamide]	< 10	170	–	–
CS(=O)(=O)C(C(=O)NCCS(N)(=O)=O)c1nc2ccc(-c3ccc4c(c3)C(=O)NC4)cc2s1 (stereo not drawn) [Example B181, 2-(methylsulfonyl)-2-(6-(3-oxo-2,3-dihydro-1H-isoindol-5-yl)-1,3-benzothiazol-2-yl)-N-(2-sulfamoylethyl)acetamide]	–	–	< 10	145
CS(=O)(=O)C(C(=O)NCCS(N)(=O)=O)c1nc2ccc(-c3ccc4c(c3)CNC4=O)cc2s1 (stereo not drawn) [Example B182, 2-(methylsulfonyl)-2-(6-(1-oxo-2,3-dihydro-1H-isoindol-5-yl)-1,3-benzothiazol-2-yl)-N-(2-sulfamoylethyl)acetamide]	–	–	< 10	36
CS(=O)(=O)C(C(=O)NCCS(N)(=O)=O)c1nc2ccc(-c3ccc4c(c3)NC(=O)C4)cc2s1 (stereo not drawn) [Example B183, 2-(methylsulfonyl)-2-(6-(2-oxo-2,3-dihydro-1H-indol-6-yl)-1,3-benzothiazol-2-yl)-N-(2-sulfamoylethyl)a-cetamide]	–	–	< 10	139
COc1ncccc1-c1ccc2nc(C(C(=O)NCCS(N)(=O)=O)S(C)(=O)=O)sc2c1 (stereo not drawn) [Example B184, 2-(6-(2-methoxy-3-pyridinyl)-1,3-benzothiazol-2-yl)-2-(methylsulfonyl)-N-(2-sulfamoylethyl)acetamide]	–	–	< 10	65
COc1cccc(-c2ccc3nc(C(C(=O)NCCS(N)(=O)=O)S(C)(=O)=O)sc3c2)n1 (stereo not drawn) [Example B185, 2-(6-(6-methoxy-2-pyridinyl)-1,3-benzothiazol-2-yl)-2-(methylsulfonyl)-N-(2-sulfamoylethyl)acetamide]	–	–	< 10	< 10
CS(=O)(=O)C(C(=O)NCCS(N)(=O)=O)c1nc2ccc(-c3ccc(O)nc3)cc2s1 (stereo not drawn) [Example B187, 2-(Methylsulfonyl)-2-(6-(6-oxo-1,6-dihydro-3-pyridinyl)-1,3-benzothiazol-2-yl)-N-(2-sulfamoylethyl)acetamide]	16	155	–	–
CS(=O)(=O)C(C(=O)NCCS(N)(=O)=O)c1nc2ccc(-c3cccc(O)n3)cc2s1 (stereo not drawn) [Example B188, 2-(methylsulfonyl)-2-(6-(6-oxo-1,6-dihydro-2-pyridinyl)-1,3-benzothiazol-2-yl)-N-(2-sulfamoylethyl)acetamide]	–	–	< 10	398
CS(=O)(=O)C(C(=O)NCCS(N)(=O)=O)c1nc2ccc(-c3ccnc(O)c3)cc2s1 (stereo not drawn) [Example B189, 2-(methylsulfonyl)-2-(6-(2-oxo-1,2-dihydro-4-pyridinyl)-1,3-benzothiazol-2-yl)-N-(2-sulfamoylethyl)acetamide]	–	–	< 10	13
COCCS(=O)(=O)C(C(=O)NCCS(N)(=O)=O)c1nc2ccc(-c3ccnc(O)c3)cc2s1 (stereo not drawn) [Example B190, 2-((2-methoxyethyl)sul-fonyl)-2-(6-(2-oxo-1,2-dihydro-4-pyridinyl)-1,3-benzothiazol-2-yl)-N-(2-sulfamoylethyl)acetamide]	–	–	< 10	272
NS(=O)(=O)CCNC(=O)C(c1nc2ccc(-c3ccnc(O)c3)cc2s1)S(=O)(=O)CCC(F)(F)F (stereo not drawn) [Example B191, 2-(6-(2-oxo-1,2-dihydro-4-pyridinyl)-1,3-benzothiazol-2-yl)-N-(2-sulfamoylethyl)-2-((3,3,3-trifluoropropyl)sulfonyl)a-cetamide]	–	–	< 10	445
CS(=O)(=O)C(C(=O)NCCS(N)(=O)=O)c1nc2ccc(-c3cc(O)ncc3F)cc2s1 (stereo not drawn) [Example B192, 2-(6-(5-fluoro-2-oxo-1,2-dihydro-4-pyridinyl)-1,3-benzothiazol-2-yl)-2-(methylsulfonyl)-N-(2-sulfamoylethyl)acetamide]	–	–	< 10	20600
CC(C)(C)OC(=O)c1ccc2nc(C(C(=O)NCCS(N)(=O)=O)S(=O)(=O)CCC(F)(F)F)sc2c1 (stereo not drawn) [Example B196, tert-Butyl 2-(2-oxo-2-((2-sulfamoylethyl)amino)-1-((3,3-trifluoropropyl)sulfonyl)ethyl)benzo[d]thiazole-6-carboxylate]	65	379	–	–
NS(=O)(=O)CCNC(=O)C(c1nc2ccc(C(=O)N3CCC(F)(F)C3)cc2s1)S(=O)(=O)CCC(F)(F)F (stereo not drawn) [Example B197, 2-(6-(3,3-Difluoropyrrolidine-1-carbonyl)benzo[d]thiazol-2-yl)-N-(2-sulfamoylethyl)-2-((3,3,3-trifluoropropyl)sulfonyl)acetamide]	< 10	10100	–	–
NS(=O)(=O)CCNC(=O)C(c1nc2ccc(C(=O)NCCc3c[nH]cn3)cc2s1)S(=O)(=O)CCC(F)(F)F (stereo not drawn) [Example B198, N-(2-(1H-imidazol-4-yl)ethyl)-2-(2-oxo-2-((2-sulfamoylethyl)amino)-1-((3,3,3-trifluoropropyl)sul-fonyl)ethyl)-1,3-benzothiazole-6-carboxamide]	–	–	148	3930

Next, values leading:

IC50 (Endothelial lipase (EL); [1]) [nM]	IC50 (hepatic lipase (HL); [2]) [nM]	IC50 (Endothelial lipase (EL)) [nM]	IC50 (hepatic lipase (HL)) [nM]	SMILES
–	–	< 10	118	COC1CN(C(=O)c2ccc(-c3ccc4nc(C(C(=O)NCCS(N)(=O)=O)S(C)(=O)=O)sc4c3)cc2)C1 (stereo not drawn) [Example B175, 2-(6-(4-((3-methoxy-1-azetidinyl)carbonyl)phen-yl)-1,3-benzothiazol-2-yl)-2-(methylsulfonyl)-N-(2-sulfamoylethyl)a-cetamide]
–	–	< 10	92	CC1(O)CCN(C(=O)c2ccc(-c3ccc4nc(C(C(=O)NCCS(N)(=O)=O)S(C)(=O)=O)sc4c3)cc2)CC1 (stereo not drawn) [Example B176, 2-(6-(4-((4-hydroxy-4-methyl-1-piperidinyl)car-bonyl)phenyl)-1,3-benzothiazol-2-yl)-2-(methylsulfonyl)-N-(2-sulfamoylethyl)acetamide]
–	–	< 10	495	CS(=O)(=O)C(C(=O)NCCS(N)(=O)=O)c1nc2ccc(-c3ccc(C(=O)N4CCC(O)CC4)cc3)cc2s1 (stereo not drawn) [Example B177, 2-(6-(4-((4-hydroxy-1-piperidinyl)carbonyl)phen-yl)-1,3-benzothiazol-2-yl)-2-(methylsulfonyl)-N-(2-sulfamoylethyl)a-cetamide]
–	–	< 10	91	CS(=O)(=O)C(C(=O)NCCS(N)(=O)=O)c1nc2ccc(-c3ccc(C(=O)NC4COC4)cc3)cc2s1 (stereo not drawn) [Example B178, 4-(2-(1-(methylsulfonyl)-2-oxo-2-((2-sulfamoylethyl)a-mino)ethyl)-1,3-benzothiazol-6-yl)-N-3-oxetanylbenzamide]
–	–	1.1	10000	CC(C)(O)Cn1cc(-c2ccc3nc(C(C(=O)NCCS(N)(=O)=O)S(C)(=O)=O)sc3c2)ccc1=O (stereo not drawn) [Example B186, 2-(6-(1-(2-hydroxy-2-methylpropyl)-6-oxo-1,6-dihydro-3-pyridinyl)-1,3-benzothiazol-2-yl)-2-(methylsulfonyl)-N-(2-sulfamoylethyl)acetamide]
–	–	0.5	238	CS(=O)(=O)C(C(=O)NCCS(N)(=O)=O)c1nc2ccc(-c3ccnc(O)c3F)cc2s1 (stereo not drawn) [Example B193, 2-[6-(3-fluoro-2-hydroxy-4-pyridinyl)-1,3-benzothiazol-2-yl]-2-(methylsulfonyl)-N-(2-sulfamoylethyl)acetamide]
–	–	2	95	CS(=O)(=O)C(C(=O)NCCS(N)(=O)=O)c1nc2cc(-c3ccnc(O)c3)ccc2s1 (stereo not drawn) [Example B194, 2-(methylsulfonyl)-2-(5-(2-oxo-1,2-dihydro-4-pyridinyl)-1,3-benzothiazol-2-yl)-N-(2-sulfamoylethyl)acetamide]
–	–	1	105	CS(=O)(=O)C(C(=O)NCCS(N)(=O)=O)c1nc2cc(-c3ccc(O)nc3)ccc2s1 (stereo not drawn) [Example B195, 2-(methylsulfonyl)-2-(5-(6-oxo-1,6-dihydro-3-pyridinyl)-1,3-benzothiazol-2-yl)-N-(2-sulfamoylethyl)acetamide]
